From article PMC6024615, “Effect of Biliary Drainage on the Toxicity and Toxicokinetics of Amanita exitialis in Beagles” (Toxins, 2018)
*1 amine or outer side, *2 acyl side, *3 side chain or, on linkers, in order; H or OH if unused. Where a SMILES comes first, the peptide text is derived from it. Bridges are numbered along the chain shown (N, C = ends). [ ]: non-standard residue; d: D form. Trp(2-yl) = O=C([C@H](Cc1c([*:3])[nH]c2ccccc12)N[*:1])[*:2]; Leu(4R-OH,5-OH) = C[C@](O)(CO)C[C@H](N)C(=O)O; dAsp(3S-OH) = N[C@@H](C(=O)O)[C@H](O)C(=O)O; cisHyp = O=C(O)[C@@H]1C[C@H](O)CN1

Test: Peptide toxins in the bile of beagles with biliary drainage
Assay type: in vivo, beagle dogs
Conditions: for Accumulated amounts excreted in bile / percentage of total bile excretion, Accumulated amounts: 0–4 days
Method: The study was approved by National Institute of Occupational Health and Poison Control review board for animal experiments. Twenty-four male beagles (age, 8–10 months; weight, 10 ± 1 kg) were obtained from Beijing Institute of Xieerxin Biology Resource (Beijing, China). They were randomly divided into four groups of six animals each: control, biliary drainage, and 20 and 60 mg/kg with biliary drainage groups. The biliary drainage operation was conducted in all groups barring the control group. The dogs were dressed in homemade underwear, coats, and Elizabeth circles for a week to ensure pre-experimental acclimatization (Figure S8a–c). After determining the baseline values for biochemical indicators, the dogs were fasted for 24 h but received water ad libitum. They were anesthetized by intravenous administration of pentobarbital sodium (3%, 1 mL/kg) during the surgery. A temperature of 38–39 °C was maintained with a warming mat. After skin preservation and sterilization, the abdominal cavity was opened through the central abdomen. The abdomen was explored and blunt dissection of the common bile duct was performed (Figure S8d). The common bile duct and its branches were ligated from the intestinal side. A 7.0-Fr drainage catheter (COOK, Bloomington, IN, USA) was percutaneously inserted into the gallbladder, and a medical drainage bag was connected to the drainage catheter coming out of the abdominal cavity. Each opened layer, including the peritoneum, abdominal wall muscle, and skin, was closed with suture. The operative incision was protected with sterile gauze and a bandage, and the dogs were dressed in homemade underwear, coats, and Elizabeth circles. The drainage bag was placed in the pocket of the coat (Figure S8e). After the anesthetic wore off, the dogs were placed in cages, and food and water were provided ad libitum. The operative incision was sterilized with iodophor twice a day until stitches were removed six days after surgery. The drainage bag was replaced every day. On the eighth day after surgery, the 20 and 60 mg/kg with biliary drainage groups were orally administered a lyophilized powder of Amanita exitialis in starch capsules. In control and bile drainage group, the beagle dogs were fed with empty capsules. Immediately after dosing, the animals were placed in their cages, and food and water were provided ad libitum. Dogs were sacrificed with an overdose of sodium pentobarbital at the end of the experiment. All procedures were performed according to the ethical standards of the National Institutes of Health Guide for Animal Welfare and approved by the Institutional Animal Care and Use Committee (EAWE-2017-005).
Peptide toxins in blood and urine samples were analyzed as described previously. Bile samples from Days 0–1, Days 1–2, Days 2–3, and Days 3–4 were collected and stored in medical drainage bags and the bile volume was recorded. Plasma and urine samples were stored at 2–8 °C until analysis for peptide toxins.
α-Amanitin, β-amanitin, γ-amanitin, and phallacidin were used as the standard reference materials. Aliquots (0.2 mL) of bile samples were transferred into 2-mL polypropylene centrifuge tubes in duplicates. Next, 1 mL of acetonitrile was added to each tube. After vortex-mixing for 1 min, each sample was sonicated for 30 min and centrifuged at 11,200× g for 10 min at 4 °C. The supernatants were loaded on solid-phase extraction columns (Oasis PRiME HLB, 60 mg, 3 cc). The columns were then washed with 3 mL of methanol/ultrapure water (v/v: 5/95). The eluent was evaporated in a stream of nitrogen at room temperature. The dry residue was dissolved in 0.2 mL of ultrapure water and analyzed by UPLC-ESI-MS/MS.
UPLC and MS/MS parameters were as described in our previous study. The limit of detection and limit of quantitation of each toxin in the bile were 0.03 mg/kg and 0.5 mg/kg, respectively.

[1] = 0–1 days, 20 mg/kg with biliary drainage group
[2] = 0–1 days, 60 mg/kg with biliary drainage group
[3] = 20 mg/kg with biliary drainage group
[4] = 1-2 d, 20 mg/kg with biliary drainage group
[5] = 1–2 days, 20 mg/kg with biliary drainage group
[6] = 1–2 days, 60 mg/kg with biliary drainage group
[7] = 2-3 d, 20 mg/kg with biliary drainage group
[8] = 2-3 d, 60 mg/kg with biliary drainage group
[9] = 2–3 days, 20 mg/kg with biliary drainage group
[10] = 2–3 days, 60 mg/kg with biliary drainage group
[11] = 3-4d, 20 mg/kg with biliary drainage group
[12] = 3-4d, 60 mg/kg with biliary drainage group
[13] = 3–4 days, 20 mg/kg with biliary drainage group
[14] = 3–4 days, 60 mg/kg with biliary drainage group

## CC(C)[C@@H]1NC(=O)[C@H](C[C@@](C)(O)CO)NC(=O)[C@@H]2Cc3c([nH]c4ccccc34)SC[C@H](NC(=O)[C@@H]([C@H](O)C(=O)O)NC1=O)C(=O)N1C[C@@H](O)C[C@H]1C(=O)N[C@@H](C)C(=O)N2 [phallacidin] (cyclo(A[Trp(2-yl)][Leu(4R-OH,5-OH)]V[dAsp(3S-OH)]C[cisHyp]); thioether 2-6)
0-1 d, 20 mg/kg with biliary drainage group
  detection rate of peptide toxins in bile: 83%
0-1d, 20 mg/kg with biliary drainage group, mean ± SD
  toxin concentration in bile: 0 µg/L
0-1 d, 60 mg/kg with biliary drainage group
  detection rate of peptide toxins in bile: 83%
[1]
  daily amount excreted in bile: 0.00005 mg
  percentage of total bile excretion excreted daily: 100%
[2]
  daily amount excreted in bile: 0.0002 mg
  percentage of total bile excretion excreted daily: 81.7%
[3]
  Accumulated amounts excreted in bile: 0.00005 mg
  percentage of total bile excretion, Accumulated amounts: 100%
60 mg/kg with biliary drainage group
  percentage of total bile excretion, Accumulated amounts: 100%
60 mg/kg with biliary drainage group, 60 mg/kg
  Accumulated amounts excreted in bile: 0.00024 mg
20 mg/kg with biliary drainage group, mean ± SD
  ratio of peptide toxins in bile to excretion in urine and bile: less than 10%
20 mg/kg with biliary drainage group, mean ± SD, listed as Phallacidin
  ratio of peptide toxins in bile to excretion in urine and bile: 4.8 ± 5.7%
60 mg/kg with biliary drainage group, mean ± SD
  ratio of peptide toxins in bile to excretion in urine and bile: less than 20%
60 mg/kg with biliary drainage group, mean ± SD, listed as Phallacidin
  ratio of peptide toxins in bile to excretion in urine and bile: 9.4 ± 6.4%
[4]
  detection rate of peptide toxins in bile: 0%
  toxin concentration in bile: 0 µg/L
1-2 d, 60 mg/kg with biliary drainage group
  detection rate of peptide toxins in bile: 75%
[5]
  daily amount excreted in bile: 0(0%) mg
  percentage of total bile excretion excreted daily: 0(0%)
[6]
  daily amount excreted in bile: 0.00004 mg
  percentage of total bile excretion excreted daily: 18.3%
[7]
  detection rate of peptide toxins in bile: 0%
  toxin concentration in bile: 0 µg/L
[8]
  detection rate of peptide toxins in bile: 0%
  toxin concentration in bile: 0 µg/L
[9]
  daily amount excreted in bile: 0(0%) mg
  percentage of total bile excretion excreted daily: 0(0%)
[10]
  daily amount excreted in bile: 0(0%) mg
  percentage of total bile excretion excreted daily: 0(0%)
[11]
  detection rate of peptide toxins in bile: 0%
  toxin concentration in bile: 0 µg/L
[12]
  detection rate of peptide toxins in bile: 0%
  toxin concentration in bile: 0 µg/L
[13]
  daily amount excreted in bile: 0(0%) mg
  percentage of total bile excretion excreted daily: 0(0%)
[14]
  daily amount excreted in bile: 0(0%) mg
  percentage of total bile excretion excreted daily: 0(0%)
